Test results reported in patent publication US20090181110A1, “Compositions from Garcinia as Aromatase Inhibitors for Breast Cancer Chemoprevention and Chemotherapy” (THE OHIO STATE UNIVERSITY RESEARCH FOUNDATION, priority 2007, published 2009).
≈ marks a conversion by molar mass, not a printed value. Where “and” joins values, the source holds several entries; their conditions need not be identical. Equal values may be shown once. Read-outs that look alike come from different tables or passages of the source. Each block holds one molecule with its values, some of them ahead of it.

Key:
[1] = target: T1, aromatase (human placental microsomes) (Homo sapiens, UniProt P11511); test: Noncellular, enzyme-based, microsomal aromatase bioassay; type: biochemical; conditions: for Noncellular Bioassay PCA 20 μg/mL: percent control activity; for IC50: six concentrations 1-100 μM;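 for all read-outs here: aromatase activity read as tritiated water release by scintillation counting after 15 min at 37 °C, relative to DMSO vehicle, with boiled microsomes giving background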
T1 construct: Microsomes were obtained from the remaining tissue as described; from tissue; host or cells: human term placenta (microsomal fraction)
T1 sequence (P11511 1-503): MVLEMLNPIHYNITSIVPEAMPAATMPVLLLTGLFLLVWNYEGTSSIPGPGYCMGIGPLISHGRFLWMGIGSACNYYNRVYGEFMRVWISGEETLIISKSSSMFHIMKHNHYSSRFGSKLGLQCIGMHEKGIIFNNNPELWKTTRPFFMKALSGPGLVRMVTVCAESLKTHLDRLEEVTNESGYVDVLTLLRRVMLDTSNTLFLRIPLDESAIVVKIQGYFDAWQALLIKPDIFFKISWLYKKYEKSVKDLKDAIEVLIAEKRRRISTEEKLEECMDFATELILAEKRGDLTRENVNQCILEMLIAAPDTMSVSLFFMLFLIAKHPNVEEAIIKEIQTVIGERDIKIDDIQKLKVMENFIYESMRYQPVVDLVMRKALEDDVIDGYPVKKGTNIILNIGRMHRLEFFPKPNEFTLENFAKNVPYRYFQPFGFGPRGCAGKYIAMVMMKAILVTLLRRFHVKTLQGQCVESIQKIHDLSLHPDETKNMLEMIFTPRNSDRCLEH

[2] = target: T2, aromatase in SK-BR-3 cells (Homo sapiens, UniProt P11511); test: SK-BR-3 cell-based aromatase bioassay
T2 construct: SK-BR-3 hormone-independent human breast cancer cells that overexpress aromatase; endogenous in cells; host or cells: SK-BR-3 human breast cancer cells
T2 sequence (P11511 1-503): T1 sequence (P11511 1-503)

SK-BR-3 cells = test: SK-BR-3 cell-based cytotoxicity bioassay (MTT cell viability); design: species or system human; conditions: 50 μM
[3] = Peroxynitrite scavenging activity, SIN-1-derived ONOO−
Procedure: (§1) ONOO-scavenging activity was measured by monitoring the oxidation of nonfluorescent DHR 123 to highly fluorescent rhodamine 123 using the modified method of Kooy et al. Briefly, DHR 123 (5 mM) in EtOH, purged with nitrogen, was stored at −80° C. as a stock solution. This solution was not exposed to light, prior to the study. The rhodamine buffer (pH 7.4) consisted of 50 mM sodium phosphate dibasic, 50 mM sodium phosphate monobasic, 90 mM sodium chloride, 5 mM potassium chloride, and 100 μM DTPA. The final concentration of DHR 123 was 5 μM. The buffer in this assay was prepared before use and placed on ice. The concentrations of compounds tested were in the range from 0.2 to 100 μM in 10% DMSO. The background and final fluorescent intensities were measured 5 min after treatment with and without the addition of authentic ONOO— in 0.3 N sodium hydroxide (10 μM) or SIN-1 in deionized water (10 μM). DHR 123 was oxidized rapidly by ONOO—, superoxide anion (O2.-), and nitric oxide (NO.). The fluorescence intensity of oxidized DHR 123 was measured with an LS55 luminescence spectrometer (Perkin-Elmer, Boston, Mass.) at the excitation and emission wavelengths of 480 and 530 nm, respectively. […] DL-Penicillamine was used as a positive control.

[4] = Peroxynitrite scavenging activity, authentic ONOO−
Procedure: as §1

[5] = tested on: DMBA-induced preneoplastic lesions; test: Mouse mammary organ culture (MMOC) assay; type: cell-based; conditions: for percent inhibition of DMBA-induced preneoplastic lesions: 10 μg/mL
Procedure: This assay was carried out according to an established protocol disclosed in the art. In brief, 4-week-old BALB/c female mice (Charles River, Wilmington, Mass.) were pretreated for 9 days with 1 μg of estradiol and 1 mg of progesterone. On the 10th day, the mice were sacrificed and the second pair of thoracic mammary glands was dissected on silk and transferred to 60 mm culture dishes containing 5 mL of Waymouth's 752/1 MB medium supplemented with streptomycin, penicillin, and L-glutamine. The glands were incubated for 10 days (37° C., 95% O2 and 5% CO2) in the presence of growth-promoting hormones (5 μg of insulin, 5 μg of prolactin, 1 μg of aldosterone, and 1 μg of hydrocortisone per milliliter of medium). Glands were exposed to 2 μg/mL 7,12-dimethylbenz[a]anthracene (DMBA) between 72 and 96 h. After their exposure, glands were rinsed and transferred to new dishes with fresh medium. The fully differentiated glands were then permitted to regress by withdrawing all hormones except insulin for 14 additional days. Test compounds were present in the medium during days 1-10 of culture; mammary glands were scored for the incidence of lesions.

[6] = tested on: preneoplastic lesions (aberrant crypt foci); conditions: recent work, background statement, cited from earlier work
[7] = tested on: DMBA-induced preneoplastic lesions; conditions: background statement; cited from earlier work
quinone reductase = test: Quinone reductase (QR) induction assay in Hepa 1c1c7 cells; type: cell-based, murine
Source text: Thus compound 21 is a candidate for use as a cancer chemopreventive agent.

Molecule: N#Cc1ccc(C(c2ccc(C#N)cc2)n2cncn2)cc1 [LET, Letrozole, reference compound]
Cell-based Bioassay PCA (positive control) ([2]; 10 nM letrozole): 7.4 PCA

Molecule: 8-hydroxycudraxanthone G [Compound 1]
antioxidant activity, in words (SIN-1-derived ONOO−) [3]: potent antioxidant activity
Noncellular Bioassay PCA 20 μg/mL [1]: 55.1 PCA
antioxidant activity, in words (authentic ONOO−) [4]: potent antioxidant activity

Molecule: CC(C)=CCc1cc(/C=C/C(=O)c2ccc3c(c2O)C=CC(C)(C)O3)ccc1O [paratocarpin B]
aromatase inhibiting activity, in words [1]: show results that are supportive of these compounds having utility as aromatase inhibitors

Molecule: CC(C)=CCc1c(O)cc2oc3cc(O)c(O)c(CC=C(C)C)c3c(=O)c2c1O [Compound 11, γ-mangostin]
antioxidant activity, in words (SIN-1-derived ONOO−) [3]: potent antioxidant activity
aromatase inhibiting activity, in words [1]: greatest aromatiase inhibiting activity
Noncellular Bioassay PCA 20 μg/mL [1]: 4.7 PCA
IC50 [1]: 6.88 µM and 6.9 µM
IC50 [2]: 4.97 ± 1.9 µM
Cell-based Bioassay PCA 50 μM [2]: −0.5 PCA
antioxidant activity, in words (authentic ONOO−) [4]: potent antioxidant activity
percent inhibition of DMBA-induced preneoplastic lesions [5]: 42.9%

Molecule: COc1c(O)cc2oc3cc(O)c(CC=C(C)C)c(O)c3c(=O)c2c1CC=C(C)C [Compound 10, α-mangostin]
antioxidant activity, in words (SIN-1-derived ONOO−) [3]: potent antioxidant activity
aromatase inhibiting activity, in words [1]: greatest aromatiase inhibiting activity
Noncellular Bioassay PCA 20 μg/mL [1]: 22.2 PCA
IC50 [1]: 20.7 µM
inhibition of preneoplastic lesions in colon carcinogenesis model, in words [6]: suppress the carcinogen-induced formation of aberrant crypt foci
inhibition of preneoplastic lesions in colon carcinogenesis model, in words ([6]; listed as crude α-mangostin (10) preparation): efficacy in inhibiting preneoplastic lesions
Cell-based Bioassay PCA 50 μM [2]: 59.4 PCA
Cytotoxicity % cell surv. (SK-BR-3 cells): 18.4%
antioxidant activity, in words (authentic ONOO−) [4]: potent antioxidant activity
IC50 in dose-response MMOC assay [5]: 1.0 µg/mL (≈ 2.44 µM)
percent inhibition of DMBA-induced preneoplastic lesions [5]: 57.1%
IC50 ([5]; same value in μM, read-out: IC50 in dose-response MMOC assay): 2.44 µM
alveolar duct formation in mouse mammary organ culture model, in words [7]: inhibit alveolar duct formation

Molecule: CC(C)=CCc1c(O)ccc2oc3cc4c(c(O)c3c(=O)c12)CC(C(C)(C)O)O4 (stereo not drawn) [Compound 22, 2,3-dihydro-4,7-dihydroxy-2-(2-hydroxypropan-2-yl)-6-(3-methylbut-2-enyl)furo[3,2-b]xanthen-5-one]
CD (concentration required to double QR induction activity) (quinone reductase): 2.2 µg/mL

Molecule: COc1c(O)cc2oc3cc4c(c(O)c3c(=O)c2c1CC=C(C)C)C=CC(C)(C)O4 [Compound 24, mangostanin]
CD (concentration required to double QR induction activity) (quinone reductase): 0.95 µg/mL

Molecule: O=C(/C=C/c1ccc(O)cc1)c1ccc(O)cc1O [isoliquiritigenin, reference compound]
CD (concentration required to double QR induction activity) (quinone reductase): 1.1 µg/mL

Molecule: CC(C)=CCc1c(O)cc2oc3ccc(O)c(CC=C(C)C)c3c(=O)c2c1O [Compound 23, 1,3,7-trihydroxy-2,8-di-(3-methylbut-2-enyl)xanthone]
CD (concentration required to double QR induction activity) (quinone reductase): 0.68 µg/mL

Molecule: CC(C)=CCc1c(O)cc2oc3ccc4c(c3c(=O)c2c1O)C(O)C(C(C)(C)O)O4 (stereo not drawn) [Compound 21, 1,2-dihydro-1,8,10-trihydroxy-2-(2-hydroxypropan-2-yl)-9-(3-methylbut-2-enyl)furo[3,2-a]xanthen-11-one]
CD (concentration required to double QR induction activity) (quinone reductase): 1.3 µg/mL

Molecule: garcinone E [Compound 7]
aromatase inhibiting activity, in words [1]: greatest aromatiase inhibiting activity
Noncellular Bioassay PCA 20 μg/mL [1]: 23.9 PCA
IC50 [1]: 25.1 µM
Cell-based Bioassay PCA 50 μM [2]: 32.3 PCA
Cytotoxicity % cell surv. (SK-BR-3 cells): 52.3%

Molecule: COc1ccc([C@@H]2COc3c(ccc4c3C=CC(C)(C)O4)C2)c(O)c1 [4′O-methylglabridin]
aromatase inhibiting activity, in words [1]: show results that are supportive of these compounds having utility as aromatase inhibitors

Now from value to molecule, other results behind:

aromatase inhibiting activity, in words [1]: greatest aromatiase inhibiting activity
Noncellular Bioassay PCA 20 μg/mL [1]: 10.0 PCA
IC50 [1]: 5.16 µM and 5.2 µM
Cell-based Bioassay PCA 50 μM [2]: 50.7 PCA
Molecule: COc1c(O)cc2oc3cc(O)c(CC=C(C)C)c(O)c3c(=O)c2c1CCC(C)(C)O [Compound 6, garcinone D]
Cytotoxicity % cell surv. (SK-BR-3 cells): 89.4%

Noncellular Bioassay PCA 20 μg/mL [1]: 57.8 PCA
Molecule: cudraxanthone G [Compound 3]

Noncellular Bioassay PCA 20 μg/mL [1]: 80.8 PCA
Molecule: CC(C)=CCC/C(C)=C/Cc1c(O)cc2oc3c(O)ccc(O)c3c(=O)c2c1O [Compound 13, smeathxanthone A]
antioxidant activity, in words (SIN-1-derived ONOO−) [3]: potent antioxidant activity
antioxidant activity, in words (authentic ONOO−) [4]: potent antioxidant activity

Noncellular Bioassay PCA 20 μg/mL [1]: 82.6 PCA
Molecule: 8-deoxygartanin [Compound 4]

Noncellular Bioassay PCA 20 μg/mL [1]: 74.7 PCA
Molecule: CC(C)=CCc1c(O)cc2oc3c(CC=C(C)C)c(O)c4c(c3c(=O)c2c1O)C=CC(C)(C)O4 [Compound 14, tovophyllin A]

Noncellular Bioassay PCA 20 μg/mL [1]: 52.6 PCA
Molecule: 1-isomangostin [Compound 9]

Noncellular Bioassay PCA 20 μg/mL [1]: 75.9 PCA
Molecule: CC(C)=CCc1c(O)c(CC=C(C)C)c2oc3c(O)ccc(O)c3c(=O)c2c1O [Compound 8, gartanin]

Noncellular Bioassay PCA 20 μg/mL [1]: 78.8 PCA
Molecule: CC(C)=CCC/C(C)=C/Cc1c(O)cc2oc3c(O)cccc3c(=O)c2c1O [Compound 12, mangostinone]
